Measurements published in PubChem BioAssay (NCI).
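How tested: cells in 96-well plates exposed to compound for 48 hours at five concentrations. GI50: concentration for 50% inhibition of growth. TGI is the concentration that stops growth completely.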

Key:
Assay in all cases: DTP human tumour cell line panel, 48 h
HOP-62 NSCLC = tested on: HOP-62 NSCLC
SF-539 CNS = tested on: SF-539 CNS
KM12 colon = tested on: KM12 colon
A549 NSCLC = tested on: A549 NSCLC
OVCAR-5 ovarian = tested on: OVCAR-5 ovarian
UACC-257 melanoma = tested on: UACC-257 melanoma
NCI-H23 lung = tested on: NCI-H23 lung
HCC-2998 colon = tested on: HCC-2998 colon
SK-MEL-5 melanoma = tested on: SK-MEL-5 melanoma
SK-OV-3 ovarian = tested on: SK-OV-3 ovarian

Row | SMILES | GI50 (HOP-62 NSCLC) | TGI (HOP-62 NSCLC) | GI50 (SF-539 CNS) | TGI (SF-539 CNS) | GI50 (KM12 colon) | TGI (KM12 colon) | GI50 (A549 NSCLC) | TGI (A549 NSCLC) | GI50 (OVCAR-5 ovarian) | TGI (OVCAR-5 ovarian) | GI50 (UACC-257 melanoma) | TGI (UACC-257 melanoma) | GI50 (NCI-H23 lung) | TGI (NCI-H23 lung) | GI50 (HCC-2998 colon) | TGI (HCC-2998 colon) | GI50 (SK-MEL-5 melanoma) | TGI (SK-MEL-5 melanoma) | GI50 (SK-OV-3 ovarian) | TGI (SK-OV-3 ovarian)
1 | C[C@@H]1COCCN1c1cc(C2(S(C)(=N)=O)CC2)nc(-c2ccnc3[nH]ccc23)n1 (stereo not given in full) | 2.94 µM | 36.1 µM | 0.86 µM | 3.5 µM | 5.72 µM | 63.1 µM | 3.35 µM | 35.2 µM | 3.3 µM | 16.7 µM | 11.7 µM | 52.7 µM | 2.62 µM | 34.3 µM | 2.39 µM | > 100 µM | 4.17 µM | 35 µM | 5.27 µM | 56.4 µM
2 | NNC(=O)CCC(=O)NC1C2CC3CC(C2)CC1C3 (stereo not given) |  | > 100 µM |  | > 100 µM |  | > 100 µM |  | > 100 µM |  | > 100 µM |  | > 100 µM |  | > 100 µM |  | > 100 µM |  | > 100 µM |  | > 100 µM
3 | N#CC(C(=O)C(=O)NCCCNC(=O)C(=O)C(C#N)c1ccccc1)c1ccccc1 (stereo not given) |  | > 100 µM |  | > 100 µM |  | > 100 µM |  | > 100 µM |  | > 100 µM |  | > 100 µM |  | > 100 µM |  | > 100 µM |  | > 100 µM |  | > 100 µM
4 | COc1ccc(NC(=O)c2cc(OC)c(OC)c(OC)c2)cc1 |  | 99.7 µM |  | > 100 µM |  | > 100 µM |  | > 100 µM |  | > 100 µM |  | > 100 µM |  | > 91.9 µM |  | > 100 µM |  | > 80.6 µM |  | > 100 µM
5 | CC1OC2CC(=O)OC2C2=C1C(=O)c1c(O)c3c(c(O)c1C2=O)C1CC(O)C3(O)C(C)O1 (stereo not given) | 0.826 µM | 2.8 µM | 0.458 µM | 1.37 µM | 0.664 µM | 2.02 µM | 0.869 µM | 7.74 µM | 0.292 µM | 0.879 µM | 0.212 µM | 0.525 µM | 0.414 µM | 1.55 µM | 0.442 µM | 1.67 µM | 1.23 µM | 2.5 µM | 3.24 µM | 11.1 µM
6 | CC[C@H](CC#N)OC(=O)N[C@@H](C)c1cccc(NC(=O)Nc2ccc(-c3cnco3)c(OC)c2)c1 | 0.0856 µM | 36.8 µM | 0.0386 µM | 28 µM | 0.0715 µM | 18.1 µM | 0.0336 µM | 20.9 µM | 0.623 µM | > 84.5 µM | 0.0922 µM | 23.1 µM | 0.16 µM | 43.2 µM | 0.142 µM | 51.6 µM | 0.18 µM | 16.4 µM | 0.0722 µM | > 63.8 µM
7 | O=C1C(Cl)=C(Nc2cccc(O)c2)C(=O)N1c1cc(Cl)c(Cl)cc1Cl | 21.3 µM | 36.9 µM | 14.9 µM | 34.3 µM | 16.5 µM | 34.3 µM | 21.7 µM | 47.5 µM | 24.2 µM | 48.2 µM | 30.3 µM | 77.2 µM | 22.3 µM | 48.3 µM | 19.1 µM | 34.8 µM | 11 µM | 23.3 µM | 20.8 µM | 65.3 µM
